# Reference: ChEMBL document CHEMBL6182867, “Discovery of ultra short β-peptoids with selective activity against drug-resistant Mycobacterium tuberculosis” (Eur J Med Chem, 2025)
# Active and inactive are the calls of the source. The rule behind the calls is not given here.
# Legend:
# Mycobacterium kansasii = assay: Antibacterial activity against Mycobacterium kansasii ATCC 12478 incubated for 7 days by microplate alamar blue assay; format: functional; details: ATCC 12478, 168 h, time 7 day
# Mycobacterium avium = assay: Antibacterial activity against Mycobacterium avium ATCC 15769 incubated for 6 days by microplate alamar blue assay; format: functional; details: ATCC 15769, 144 h, time 6 day
# Mycobacteroides chelonae = assay: Antibacterial activity against Mycobacteroides chelonae ATCC 35752 incubated for 3 days by microplate alamar blue assay; format: functional; details: ATCC 35752, 72 h, time 3 day
# Mycobacterium marinum = assay: Antibacterial activity against Mycobacterium marinum ATCC 927 incubated for 5 days by microplate alamar blue assay; format: functional; details: ATCC 927, 120 h, time 5 day
# [1] = tested on: Mycobacteroides abscessus; assay: Antibacterial activity against Mycobacterium abscessus ATCC 19977 incubated for 3 days by microplate alamar blue assay; format: functional; details: ATCC 19977, 72 h, time 3 day
# Mitochondrial membrane [2] = assay: Induction of […] membrane potential loss in Mycobacterium tuberculosis H37Rv at <=MIC measured after 15 mins by DiOC2 dye based fluorescence assay; format: cell membranes
# Mitochondrial membrane [3] = assay: Induction of […] membrane potential loss in Mycobacterium tuberculosis H37Rv at <=MIC measured after 24 hrs by DiOC2 dye based fluorescence assay; format: cell membranes
# [4] = Cytotoxicity against African green monkey Vero cells measured after 3 days by resazurin dye based fluorescence assay; format: toxicity, cell-based; details: African green monkey (Chlorocebus sabaeus)
# [5] = tested on: Mycobacterium tuberculosis; assay: Antitubercular activity against Mycobacterium tuberculosis H37Rv ATCC 27294 by microplate alamar blue assay; format: functional
# [6] = tested on: Mycobacterium tuberculosis; assay: Antitubercular activity against Mycobacterium tuberculosis KMA 4244 by microplate alamar blue assay; format: functional
# [7] = tested on: Mycobacterium tuberculosis; assay: Bactericidal activity against Mycobacterium tuberculosis H37Rv measured up to 7 days by luminescence assay; format: functional; details: time <= 7 day
# Pseudomonas aeruginosa = assay: Antibacterial activity against Pseudomonas aeruginosa by microplate alamar blue assay; format: functional
# Staphylococcus aureus = assay: Antibacterial activity against Staphylococcus aureus by microplate alamar blue assay; format: functional
# Klebsiella aerogenes = assay: Antibacterial activity against Enterobacter aerogenes by microplate alamar blue assay; format: functional
# [8] = tested on: Mycobacterium tuberculosis; assay: Antitubercular activity against Mycobacterium tuberculosis KMA 3899 by microplate alamar blue assay; format: functional
# Klebsiella pneumoniae = assay: Antibacterial activity against Klebsiella pneumoniae by microplate alamar blue assay; format: functional
# [9] = tested on: Mycobacterium tuberculosis; assay: Antitubercular activity against Mycobacterium tuberculosis KMA 4439 by microplate alamar blue assay; format: functional
# [10] = tested on: Mycobacterium tuberculosis; assay: Antitubercular activity against Mycobacterium tuberculosis H37Rv by microplate alamar blue assay; format: functional
# [11] = tested on: Mycobacterium tuberculosis; assay: Antitubercular activity against Mycobacterium tuberculosis KMA 1354 by microplate alamar blue assay; format: functional
# Enterococcus faecium = assay: Antibacterial activity against Enterococcus faecium by microplate alamar blue assay; format: functional
# Acinetobacter baumannii = assay: Antibacterial activity against Acinetobacter baumannii by microplate alamar blue assay; format: functional
# [12] = tested on: Mycobacterium tuberculosis; assay: Antitubercular activity against Mycobacterium tuberculosis KMA 5282 by microplate alamar blue assay; format: functional
# [13] = tested on: Mycobacterium tuberculosis; assay: Antitubercular activity against Mycobacterium tuberculosis H37Rv assessed as post antibiotic affect by measuring time required for 1 log10 increase in RLU at 0.05 uM measured daily for up to 14 days by luminescence assay; format: functional; details: time <= 14 day
# [14] = tested on: Mycobacterium tuberculosis; assay: Antitubercular activity against Mycobacterium tuberculosis H37Rv assessed as post antibiotic affect by measuring time required for 1 log10 increase in RLU at 5 uM measured daily for up to 14 days by luminescence assay; format: functional; details: time <= 14 day
# [15] = tested on: Mycobacterium tuberculosis; assay: Antitubercular activity against Mycobacterium tuberculosis H37Rv assessed as post antibiotic affect by measuring time required for 1 log10 increase in RLU at 0.5 uM measured daily for up to 14 days by luminescence assay; format: functional; details: time <= 14 day
# Candida albicans = assay: Antifungal activity against Candida albicans by microplate alamar blue assay; format: functional
smiles,measurement,setting,value
CC(C)/N=c1\cc2n(-c3ccc(Cl)cc3)c3ccccc3nc-2cc1Nc1ccc(Cl)cc1 [CLOFAZIMINE],MIC90,Mycobacterium kansasii,5.68 µM
same,MIC90,Mycobacterium avium,5.78 µM
same,MIC90,Mycobacteroides chelonae,5.89 µM
same,MIC90,Mycobacterium marinum,9.92 µM
same,MIC90,[1],10.7 µM
N#CC(C#N)=NNc1cccc(Cl)c1 [CARBONYL CYANIDE M-CHLOROPHENYLHYDRAZONE],Activity,Mitochondrial membrane [2],inactive
same,Activity,Mitochondrial membrane [3],Active
same,IC50 at 3 days,[4],10.8 µM
CC(C)N(C(=O)CN(CC(c1ccccc1)c1ccccc1)C(=O)CNCC1CCCO1)C(C)C (stereo not drawn),MIC90,[5],24.4 µg/mL
CC(C)N(C(=O)CCNCc1cccs1)C(C)C,MIC90,[5],43.8 µg/mL
O=C(CNCCC(c1ccccc1)c1ccccc1)N1CCCC1,MIC90,[5],11.6 µg/mL
COCCN(CCOC)C(=O)CCN(CC1CCCO1)C(=O)CCNCC(c1ccccc1)c1ccccc1 (stereo not drawn),MIC90,[5],6.22 µg/mL
CC(C)N(C(=O)CN(Cc1cccc2ccccc12)C(=O)CNCc1cccs1)C(C)C,MIC90,[5],11.6 µg/mL
COc1c(N2C[C@@H]3CCCN[C@@H]3C2)c(F)cc2c(=O)c(C(=O)O)cn(C3CC3)c12 [MOXIFLOXACIN],MIC90,[6],0.42 µM
same,MBC99,[7],470 µg/mL
same,MIC90,Pseudomonas aeruginosa,0.75 µM
same,IC50 at 3 days,[4],> 100 µM
same,MIC90,Staphylococcus aureus,< 0.195 µM
same,MIC90,Klebsiella aerogenes,< 0.195 µM
same,MIC90,[8],0.11 µM
same,MIC90,Klebsiella pneumoniae,< 0.195 µM
same,MIC90,[9],0.33 µM
same,MIC90,[5],0.19 µM
same,MIC90,[10],0.29 µM
same,MIC90,[11],0.12 µM
same,MIC90,Enterococcus faecium,1.58 µM
same,MIC90,Acinetobacter baumannii,< 0.195 µM
same,MIC90,[12],0.48 µM
NC(=O)c1cnccn1 [PYRAZINAMIDE],MIC90,[6],1.51 µM
same,MIC90,[8],0.24 µM
same,MIC90,[9],0.49 µM
same,MIC90,[10],0.43 µM
same,MIC90,[11],0.25 µM
same,MIC90,[12],0.92 µM
CO[C@H]1/C=C/O[C@@]2(C)Oc3c(C)c(O)c4c(O)c(c(/C=N/N5CCN(C)CC5)c(O)c4c3C2=O)NC(=O)/C(C)=C\C=C\[C@H](C)[C@H](O)[C@@H](C)[C@@H](O)[C@@H](C)[C@H](OC(C)=O)[C@@H]1C [RIFAMPIN],MIC90,Mycobacterium kansasii,2.36 µM
same,MIC90,[6],0.11 µM
same,MBC99,[7],70 µg/mL
same,PAE,[13],~24 h
same,MIC90,Mycobacterium avium,3.05 µM
same,IC50 at 3 days,[4],> 95.7 µM
same,MIC90,Mycobacteroides chelonae,6.93 µM
same,MIC90,[8],0.04 µM
same,MIC90,[9],0.22 µM
same,MIC90,Mycobacterium marinum,2.23 µM
same,MIC90,[5],0.02 µM
same,PAE,[14],~60 h
same,MIC90,[10],0.06 µM
same,MIC90,[11],0.05 µM
same,MIC90,[1],> 10 µM
same,MIC90,[12],0.14 µM
same,PAE,[15],~60 h
CCN(CC)C(=O)CCNCCC1CCCCCCC1,MIC90,[5],12.2 µg/mL
CC(C)N(C(=O)CCNCC(c1ccccc1)c1ccccc1)C(C)C,MIC90,[5],10.2 µg/mL
O=C(CCNCC1CCCO1)NCc1cccc2ccccc12 (stereo not drawn),MIC90,[5],87.2 µg/mL
COCCN(CCOC)C(=O)CCNCC1CCCO1 (stereo not drawn),MIC90,[5],92.8 µg/mL
Nc1c2c(nc3ccccc13)CCCC2 [TACRINE],IC50 at 3 days,[4],90.7 µM
CCN(CC)C(=O)CN(Cc1cccc2ccccc12)C(=O)CNCCC(c1ccccc1)c1ccccc1,MIC90,[5],4.84 µg/mL
CC(C)N(C(=O)CNCCC(c1ccccc1)c1ccccc1)C(C)C,MIC90,[5],9.55 µg/mL
NNC(=O)c1ccncc1 [ISONIAZID],MIC90,Mycobacterium kansasii,> 8 µM
same,MIC90,[6],1.55 µM
same,MBC99,[7],250 µg/mL
same,MIC90,Mycobacterium avium,> 8 µM
same,MIC90,Mycobacteroides chelonae,> 8 µM
same,MIC90,[8],0.43 µM
same,MIC90,[9],0.41 µM
same,MIC90,Mycobacterium marinum,> 8 µM
same,MIC90,[5],0.46 µM
same,MIC90,[10],0.31 µM
same,MIC90,[11],0.46 µM
same,MIC90,[1],> 8 µM
same,MIC90,[12],0.98 µM
O=C(CCNCCC(c1ccccc1)c1ccccc1)N1CCCC1,MIC90,[5],23.5 µg/mL
CC(C)N(C(=O)CCN(CC(c1ccccc1)c1ccccc1)C(=O)CCNCC1CCCO1)C(C)C (stereo not drawn),MIC90,[5],24.2 µg/mL
O=C(CCNCc1cccc2ccccc12)NCCC(c1ccccc1)c1ccccc1,MIC90,[5],43.8 µg/mL
O=[N+]([O-])c1cn2c(n1)OC[C@@H](OCc1ccc(OC(F)(F)F)cc1)C2 [PRETOMANID],MBC99,[7],480 µg/mL
same,MIC90,[5],0.1 µM
C[C@@H]1[C@H](O)[C@@H](C)/C=C/C=C/C=C/C=C/C=C/C=C/C=C/[C@H](O[C@@H]2O[C@H](C)[C@@H](O)[C@H](N)[C@@H]2O)C[C@@H]2O[C@](O)(C[C@@H](O)C[C@@H](O)[C@H](O)CC[C@@H](O)C[C@@H](O)CC(=O)O[C@H]1C)C[C@H](O)[C@H]2C(=O)O [AMPHOTERICIN B],MIC90,Candida albicans,< 0.195 µM
CC(C)N(C(=O)CNCc1cccc2ccccc12)C(C)C,MIC90,[6],95.5 µg/mL
same,MIC90,[8],49.9 µg/mL
same,MIC90,[9],95.2 µg/mL
same,MIC90,[5],43.3 µg/mL
same,MIC90,[10],88.8 µg/mL
same,MIC90,[11],85 µg/mL
same,MIC90,[12],93.6 µg/mL
C[C@H]1c2cccc(O)c2C(=O)C2=C(O)[C@]3(O)C(=O)C(C(N)=O)=C(O)[C@@H](N(C)C)[C@@H]3[C@@H](O)[C@@H]21 [DOXYCYCLINE ANHYDROUS],MIC90,Pseudomonas aeruginosa,5.49 µM
same,MIC90,Staphylococcus aureus,< 0.195 µM
same,MIC90,Klebsiella aerogenes,2.84 µM
same,MIC90,Klebsiella pneumoniae,0.34 µM
same,MIC90,Enterococcus faecium,< 0.195 µM
same,MIC90,Acinetobacter baumannii,< 0.195 µM
COCCN(CCOC)C(=O)CCNCCC(c1ccccc1)c1ccccc1,MIC90,[5],8.9 µg/mL
CC(=O)NC[C@H]1CN(c2ccc(N3CCOCC3)c(F)c2)C(=O)O1 [LINEZOLID],MIC90,Mycobacterium kansasii,85.6 µM
same,MIC90,[6],1 µM
same,MBC99,[7],7310 µg/mL
same,MIC90,Mycobacterium avium,93.5 µM
same,MIC90,Mycobacteroides chelonae,5.13 µM
same,MIC90,[8],0.48 µM
same,MIC90,[9],0.95 µM
same,MIC90,Mycobacterium marinum,17.4 µM
same,MIC90,[5],0.93 µM
same,MIC90,[10],0.97 µM
same,MIC90,[11],0.91 µM
same,MIC90,[1],88 µM
same,MIC90,[12],1.89 µM
CC/C(=C(\c1ccccc1)c1ccc(OCCN(C)C)cc1)c1ccccc1 [TAMOXIFEN],IC50 at 3 days,[4],13.9 µM
O=C(CCNCC1CCCO1)N1CCCC1 (stereo not drawn),MIC90,[5],> 100 µg/mL
CC(C)N(C(=O)CNCC(c1ccccc1)c1ccccc1)C(C)C,MIC90,[5],20.4 µg/mL
COc1nc2ccc(Br)cc2cc1[C@@H](c1ccccc1)[C@@](O)(CCN(C)C)c1cccc2ccccc12 [BEDAQUILINE],MIC90,Mycobacterium kansasii,0.45 µM
same,MIC90,[6],0.24 µM
same,MBC99,[7],150 µg/mL
same,MIC90,Mycobacterium avium,0.44 µM
same,IC50 at 3 days,[4],51.4 µM
same,MIC90,Mycobacteroides chelonae,0.48 µM
same,MIC90,[8],0.12 µM
same,MIC90,[9],0.24 µM
same,MIC90,Mycobacterium marinum,0.45 µM
same,MIC90,[5],0.01 µM
same,MIC90,[10],0.12 µM
same,MIC90,[11],0.24 µM
same,MIC90,[1],0.49 µM
same,MIC90,[12],0.24 µM
CC[C@H]1OC(=O)[C@H](C)[C@@H](O[C@H]2C[C@@](C)(OC)[C@@H](O)[C@H](C)O2)[C@H](C)[C@@H](O[C@@H]2O[C@H](C)C[C@H](N(C)C)[C@H]2O)[C@](C)(OC)C[C@@H](C)C(=O)[C@H](C)[C@@H](O)[C@]1(C)O [CLARITHROMYCIN],MIC90,Mycobacterium kansasii,2.3 µM
same,MIC90,Mycobacterium avium,2.35 µM
same,MIC90,Mycobacteroides chelonae,0.15 µM
same,MIC90,Mycobacterium marinum,4.72 µM
same,MIC90,[1],> 10 µM
O=C(CNCc1cccc2ccccc12)NCCC(c1ccccc1)c1ccccc1,MIC90,[5],7.25 µg/mL
COCCN(CCOC)C(=O)CCNC(=O)CCNCc1cccc2ccccc12,MIC90,[5],3.87 µg/mL
